Assay results published in US20060100235A1, “Pharmaceutical use of substituted 1,2,4-triazoles” (Novo Nordisk A/S, priority 2003, published 2006).

Molecular target: T1, h-11βHSD1 (Homo sapiens, UniProt P28845)
T1 construct: made in house
Assay: 11βHSD1 enzyme assay (scintillation proximity assay)
Format: biochemical
Details: extract of yeast transformed with h-11βHSD1; 120 nM 3H-cortisone, 4 mM β-NADPH; 60 min at 30° C.
Experimental: Pharmacological Methods 11βHSD1 enzyme assay Materials
^3H-cortisone and anti-rabbit Ig coated scintillation proximity assay (SPA) beads were purchased from Amersham Pharmacia Biotech, β-NADPH was from Sigma and rabbit anticortisol antibodies were from Fitzgerald. An extract of yeast transformed with h-11βHSD1 (Hult et al., FEBS Lett, 441, 25 (1998)) was used as the source of enzyme. The test compounds were dissolved in DMSO (10 mM). All dilutions were performed in a buffer containing 50 mM TRIS-HCl (Sigma Chemical Co), 4 mM EDTA (Sigma Chemical Co), 0.1% BSA (Sigma Chemical Co), 0.01% Tween-20 (Sigma Chemical Co) and 0.005% bacitracin (Novo Nordisk A/S), pH=7.4. Optiplate 96 wells plates were supplied by Packard. The amount of ^3H-cortisol bound to the SPA beads was measured on TopCount NXT, Packard.
h-11βHSD1, 120 nM ^3H-cortisone, 4 mM β-NADPH, antibody (1:200), serial dilutions of test compound and SPA particles (2 mg/well) were added to the wells. The reaction was initiated by mixing the different components and was allowed to proceed under shaking for 60 min at 30° C. […] Data was analysed using GraphPad Prism software.

T1 sequence (P28845 whole entry): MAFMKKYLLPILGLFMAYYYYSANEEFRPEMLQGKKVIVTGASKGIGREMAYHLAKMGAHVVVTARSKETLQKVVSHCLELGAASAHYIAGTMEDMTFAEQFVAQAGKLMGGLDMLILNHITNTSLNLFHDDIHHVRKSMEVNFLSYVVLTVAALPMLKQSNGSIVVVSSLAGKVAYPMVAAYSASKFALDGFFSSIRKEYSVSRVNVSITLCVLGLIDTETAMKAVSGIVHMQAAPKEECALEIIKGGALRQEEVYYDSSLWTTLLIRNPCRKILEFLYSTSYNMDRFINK

IC50 [nM] | SMILES
160 | CCn1c(SCC(=O)N2CCCc3ccccc32)nnc1-c1ccccc1Br [Comp A, 2-[5-(2-Bromo-phenyl)-4-ethyl-4H-[1,2,4]triazol-3-ylsulfanyl]-1-(3,4-dihydro-2H-quinolin-1-yl)-ethanone]
190 | Cn1c(SCC(=O)c2ccccc2)nnc1C1CCCCC1 [Comp B, 2-(5-Cyclohexyl-4-methyl-4H-[1,2,4]triazol-3-ylsulfanyl)-1-phenyl-ethanone]
